In patent publication US7683185B2, “Histone deacetylase inhibitors” (Queen Mary & Westfield College, priority 2002, dated 2010):
Like-named read-outs stand apart in the source and are kept apart here.

What was measured:
rat liver HDAC = experiment: HDAC activity assay with partially purified rat liver HDAC enzyme (MAL substrate); format: biochemical
Procedure: The activity of the compounds as inhibitors of histone deacetylase was investigated using a modified assay based on a rapid in vitro HDAC activity assay (based on the deacetylation of an Ω-acetylated lysine (MAL)) and described by Hoffman et al. in Nucl. Acids. […] The reaction was terminated with 100 μl acetonitrile, and MAL and the deacetylated produce (ML) were determined in the supernatant. […] MAL and ML peak heights were used to derive the percentage MAL in the mixture as the ration of MAL: MAL+ML.

[1] = system: T1, whole cell HDAC activity (CEM cells); experiment: Whole cell HDAC activity assay in intact CEM cells (MAL substrate); format: cell-based
T1 construct: other: intact CEM cells
Procedure: The fluorescent substrate MAL has been used in a novel assay established and validated by Dr. Joel for the determination of HDAC activity in intact cells.
1×10^6 CEM cells in 1 ml medium were exposed to inhibitors at 6 concentrations for 60 minutes, after which MAL at 20 μg/ml (5 μg/mL final concentration) was added for a further 30 minutes, all at 37° C. Cells were then rapidly washed at 4° C., lysed by sonication, the reaction stopped with acetonitrile, and MAL and the deacetylated product determined in the supernatant by rapid HPLC.
Chromatographic separation of MAL and ML was carried out using a 15 cm Apex ODS 5 μM column with acetonitrile/distilled water (40:60), 2% trifluoracetic acid (TFA) v/v mobile phase at a flow rate of 1.2 ml/minute.
The activity of each inhibitor was assessed at a minimum of 5 non-zero concentrations. MAL and ML peak heights were used to derive the percentage MAL in the mixture as the ration of MAL: MAL+ML.

CEM cells = experiment: Percentage viability in CEM cells (3-day exposure); format: cell-based
[2] = system: whole cell HDAC activity (CEM cells); experiment: Whole cell HDAC assay modified for 24-hour incubation with CEM cells as indicator of in vitro compound stability
[3] = rat liver HDAC preparation, 60 minutes at 37° C., read-out: HDAC inhibitory activity (IC50) μM Liver preparation
[4] = intact CEM cells, inhibitor 60 minutes then MAL 30 minutes, read-out: HDAC inhibitory activity (IC50) μM CEM cells
[5] = CEM cells (Table 2), read-out: HDAC inhibitory activity CEM cells (IC50)
[6] = Homo sapiens, CCRF-CEM, 72 h, Table 2, CEM cells, 3-day exposure, read-out: % Viability (IC50)
[7] = rat liver HDAC, read-out: HDAC activity IC50, rat liver HDAC
[8] = intact CEM cells, read-out: HDAC activity IC50, CEM cells

IC50 (rat liver HDAC; [3]) [µM] | IC50 [1, 4] [µM] | IC50 [1, 5] [µM] | decrease in HDAC inhibitory activity between 1 and 24 hours incubation [2] | IC50 (rat liver HDAC; [7]) [µM] | IC50 [1, 8] [µM] | Molecule | IC50 (CEM cells; [6]) [µM] | other results
 |  | 1.28 | no decrease in activity |  |  | O=C(CCCCC[S+]([O-])c1ccc(Cl)cc1)NO (stereo not drawn) [UCL 2007, 6-(4-Chloro-benzenesulfinyl)-hexanoic acid hydroxyamide] | 2.56 | 
 |  |  |  | 0.8 ± 0.7 | 47 ± 17 | CC=CC=CC(=O)NO [hexa-2,4-dienic acid hydroxamide, reference compound] |  | 

The next lines start with the molecule.

Molecule | IC50 (rat liver HDAC; [3]) [µM] | IC50 [1, 4] [µM] | IC50 [1, 5] [µM] | decrease in HDAC inhibitory activity between 1 and 24 hours incubation [2] | IC50 (rat liver HDAC; [7]) [µM] | IC50 [1, 8] [µM] | IC50 (CEM cells; [6]) [µM] | other results
O=C(/C=C/C=C/CS(=O)(=O)c1ccccc1)NO [CM4, 6-benzenesulfonyl-hexa-2,4-dienoic acid hydroxamide] | 0.8 ± 0.3 | 3.3 ± 1.3 |  |  |  |  |  | 
O=C(/C=C/C=C/C[S+]([O-])c1ccc(Cl)cc1)NO (stereo not drawn) [UCL 2002, 6-(4-Chlorobenzenesulfinyl)-hexa-2,4-dienoic acid hydroxyamide] | 0.4 ± 0.1 | 1.2 ± 0.4 | 1.58 | no decrease in activity |  |  | 1.57 | IC50 (rat liver HDAC; purified liver HDAC (Table 2), read-out: HDAC inhibitory activity Purified liver (IC50)): 0.31 µM
CC(/C=C/C(=O)NO)=C\[C@@H](C)C(=O)c1ccc(N(C)C)cc1 [trichostatin, Trichostatin A, reference compound] |  |  |  | greater than 90% |  |  |  | IC50 (CEM cells; Homo sapiens, CCRF-CEM, 72 h, read-out: % viability (IC50) μM): 0.082 ± 0.011 µM
sodium phenyl-butyrohydroxamic acid [NaPBHA, reference compound] |  |  |  |  | 6.2 ± 2 | 158 ± 99 |  | IC50 (CEM cells; CEM cells, 3-day exposure, read-out: IC50 values for percentage viability): 138 ± 28 µM
